The results in this text go back to ChEMBL document CHEMBL4613257, “Advanced Glycation End Product Inhibition by Alkaloids from Ocotea paranapiacabensis for the Prevention of Skin Aging” (2020).

Type in all cases: functional
Assay [1] in a line: Anti-glycation activity assessed as inhibition of AGE formation at 150 uM incubated for 3 days in presence of BSA and MGO by fluorescence based assay relative to control. Set-up: scale not given: the % may be the effect or the level left.
Assay [2] relates to Zone of skin. The experiment in a line: Anti-aging activity in reconstructed human skin assessed as dermis contraction at 150 uM by hematoxylin and eosin staining-based microscopic analysis (reference value: 57.4%).
Assay [3] has as its system Zone of skin. In words: Anti-aging activity in reconstructed human skin assessed as dermis contraction at 10 mM by hematoxylin and eosin staining-based microscopic analysis (reference value: 57.4%).
Assay [4] in a line: Anti-glycation activity assessed as inhibition of AGE formation at 10 mM incubated for 3 days in presence of BSA and MGO by fluorescence based assay relative to control. The arrangement: scale not given: the % may be the effect or the level left.

The structures appear in SMILES notation.

On to `C[N+]1(C)C=Cc2cc(O)c(O)cc2C1Cc1ccc(O)cc1` (stereo not drawn), for which the Activity in assay [1] turned out to be 83.3%.
Regarding `CN1CCc2cc(O)c(O)cc2C1Cc1ccc(O)cc1` (stereo not drawn), the figures for the Activity in assay [2] and in assay [1] were 4.2% and 98.2%, respectively.
In the same order, the values of `C[N+]1(C)CCc2cc(O)c(O)cc2C1Cc1ccc(O)cc1` (stereo not drawn) are 8.7% and 61.5 to 63%.
With `N=C(N)NN` [PIMAGEDINE], the values for the Activity in assay [3] and in assay [4] were 49.7% and 92.2%, respectively.
`COc1cc2c(cc1O)C(Cc1ccc(O)cc1)[N+](C)(C)CC2` (stereo not drawn): the Activity in assay [1] stood at 26.1%.
